Reference: patent US20230278972A1, “SUBSTITUTED HALOALKYL SULFONANILIDE HERBICIDES” (FMC Corporation, priority 2020, published 2023)

Tests used:
Type in all cases: in vivo
[1] = system: Ryegrass, Italian (Italian ryegrass, Lolium multiflorum); test: Test A postemergence, Ryegrass, Italian; conditions: Postemergence, 0 to 100 scale (0 no effect, 100 complete control); for Plant response rating, Ryegrass, Italian: 125 g ai/ha, visual injury approx. 10 days; for Ryegrass, Italian plant response rating: 500 g ai/ha, visual injury vs untreated controls after approx. 10 days
In short: (§1)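 Seeds are sown in loam mixed with sand and sprayed on the soil surface right after planting for the preemergence test. Postemergence pots are sprayed once seedlings reach 2 to 10 cm at the one- to two-leaf stage. The same surfactant-containing, non-phytotoxic solvent formulation serves both.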

[2] = system: galium (catchweed bedstraw, Galium aparine); test: Test A postemergence, galium; conditions: Postemergence, 0 to 100 scale (0 no effect, 100 complete control); for Plant response rating, Galium: 125 g ai/ha, visual injury approx. 10 days; for Galium plant response rating: 500 g ai/ha, visual injury vs untreated controls after approx. 10 days
In short: (§2)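 Test chemicals, formulated in a non-phytotoxic solvent mixture with surfactant, were sprayed postemergence on plants 2 to 10 cm tall at the one- to two-leaf stage. Preemergence treatment was a directed soil spray onto freshly seeded pots. Both used a loam soil and sand blend.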

[3] = system: Foxtail, Giant (giant foxtail, Setaria faberi); test: Test A preemergence, Foxtail, Giant; conditions: Preemergence; for Foxtail, Giant plant response rating: 125 g ai/ha, visual injury on 0 to 100 scale (0 no effect, 100 complete control), approximately 10 days; for Plant response rating, Foxtail, Giant: 500 g ai/ha, 0 to 100 scale (0 no effect, 100 complete control)
In short: as §1

[4] = system: ragweed (common ragweed, Ambrosia artemisiifolia); test: Test A preemergence, ragweed; conditions: Preemergence; for Ragweed plant response rating: 125 g ai/ha, visual injury on 0 to 100 scale (0 no effect, 100 complete control), approximately 10 days; for Plant response rating, Ragweed: 500 g ai/ha, 0 to 100 scale (0 no effect, 100 complete control)
In short: as §1

[5] = system: barnyardgrass (Echinochloa crus-galli); test: Test A preemergence, barnyardgrass; conditions: Preemergence; for Barnyardgrass plant response rating: 125 g ai/ha, visual injury on 0 to 100 scale (0 no effect, 100 complete control), approximately 10 days; for Plant response rating, Barnyardgrass: 500 g ai/ha, 0 to 100 scale (0 no effect, 100 complete control)
In short: as §1

[6] = system: pigweed (Amaranthus retroflexus); test: Test A postemergence, pigweed; conditions: Postemergence, 0 to 100 scale (0 no effect, 100 complete control); for Plant response rating, Pigweed: 125 g ai/ha, visual injury approx. 10 days; for Pigweed plant response rating: 500 g ai/ha, visual injury vs untreated controls after approx. 10 days
In short: as §1

[7] = system: pigweed (Amaranthus retroflexus); test: Test A preemergence, pigweed; conditions: for Pigweed plant response rating: 125 g ai/ha, visual injury on 0 to 100 scale (0 no effect, 100 complete control), approximately 10 days; for Plant response rating, Pigweed: 500 g ai/ha, 0 to 100 scale (0 no effect, 100 complete control)
In short: as §2

[8] = system: kochia (Bassia scoparia); test: Test A preemergence, kochia; conditions: Preemergence; for Kochia plant response rating: 125 g ai/ha, visual injury on 0 to 100 scale (0 no effect, 100 complete control), approximately 10 days; for Plant response rating, Kochia: 500 g ai/ha, 0 to 100 scale (0 no effect, 100 complete control)
In short: as §1

[9] = system: ragweed (common ragweed, Ambrosia artemisiifolia); test: Test A postemergence, ragweed; conditions: Postemergence, 0 to 100 scale (0 no effect, 100 complete control); for Plant response rating, Ragweed: 125 g ai/ha, visual injury approx. 10 days; for Ragweed plant response rating: 500 g ai/ha, visual injury vs untreated controls after approx. 10 days
In short: as §1

[10] = system: barnyardgrass (Echinochloa crus-galli); test: Test A postemergence, barnyardgrass; conditions: Postemergence, 0 to 100 scale (0 no effect, 100 complete control); for Plant response rating, Barnyardgrass: 125 g ai/ha, visual injury approx. 10 days; for Barnyardgrass plant response rating: 500 g ai/ha, visual injury vs untreated controls after approx. 10 days
In short: as §2

[11] = system: wheat (Triticum aestivum); test: Test A postemergence, wheat; conditions: Postemergence, 0 to 100 scale (0 no effect, 100 complete control); for Plant response rating, Wheat: 125 g ai/ha, visual injury approx. 10 days; for Wheat plant response rating: 500 g ai/ha, visual injury vs untreated controls after approx. 10 days
In short: as §2

[12] = system: corn (Zea mays); test: Test A postemergence, corn; conditions: Postemergence, 0 to 100 scale (0 no effect, 100 complete control); for Plant response rating, Corn: 125 g ai/ha, visual injury approx. 10 days; for Corn plant response rating: 500 g ai/ha, visual injury vs untreated controls after approx. 10 days
In short: as §1

[13] = system: Ryegrass, Italian (Italian ryegrass, Lolium multiflorum); test: Test A preemergence, Ryegrass, Italian; conditions: Preemergence; for Ryegrass, Italian plant response rating: 125 g ai/ha, visual injury on 0 to 100 scale (0 no effect, 100 complete control), approximately 10 days; for Plant response rating, Ryegrass, Italian: 500 g ai/ha, 0 to 100 scale (0 no effect, 100 complete control)
In short: as §1

[14] = system: Foxtail, Giant (giant foxtail, Setaria faberi); test: Test A postemergence, Foxtail, Giant; conditions: Postemergence, 0 to 100 scale (0 no effect, 100 complete control); for Plant response rating, Foxtail, Giant: 125 g ai/ha, visual injury approx. 10 days; for Foxtail, Giant plant response rating: 500 g ai/ha, visual injury vs untreated controls after approx. 10 days
In short: as §1

[15] = system: kochia (Bassia scoparia); test: Test A postemergence, kochia; conditions: Postemergence, 0 to 100 scale (0 no effect, 100 complete control); for Plant response rating, Kochia: 125 g ai/ha, visual injury approx. 10 days; for Kochia plant response rating: 500 g ai/ha, visual injury vs untreated controls after approx. 10 days
In short: as §1

[16] = system: blackgrass (Alopecurus myosuroides); test: Test A postemergence, blackgrass; conditions: Postemergence, 0 to 100 scale (0 no effect, 100 complete control); for Plant response rating, Blackgrass: 125 g ai/ha, visual injury approx. 10 days; for Blackgrass plant response rating: 500 g ai/ha, visual injury vs untreated controls after approx. 10 days
In short: as §1

| Compound | Plant response rating, Ryegrass, Italian [1] | Ryegrass, Italian plant response rating [1] | Plant response rating, Galium [2] | Galium plant response rating [2] | Foxtail, Giant plant response rating [3] | Plant response rating, Foxtail, Giant [3] | Ragweed plant response rating [4] | Plant response rating, Ragweed [4] | Barnyardgrass plant response rating [5] | Plant response rating, Barnyardgrass [5] | Plant response rating, Pigweed [6] | Pigweed plant response rating [6] | Pigweed plant response rating [7] | Plant response rating, Pigweed [7] | Kochia plant response rating [8] | Plant response rating, Kochia [8] | Plant response rating, Ragweed [9] | Ragweed plant response rating [9] | Plant response rating, Barnyardgrass [10] | Barnyardgrass plant response rating [10] | other results |
| --- | --- | --- | --- | --- | --- | --- | --- | --- | --- | --- | --- | --- | --- | --- | --- | --- | --- | --- | --- | --- | --- |
| Cc1cc(C)c(-c2ccnn(C(C)C)c2=O)cc1NS(=O)(=O)C(F)(F)F [Compound 78] | 40 | 60 | 60 | 90 | 100 | 100 | 80 | 90 | 90 | 100 | 0 | 50 | 30 | 90 | 0 | 60 | 0 | 40 | 40 | 70 | Plant response rating, Wheat [11]: 0; Wheat plant response rating [11]: 70; Plant response rating, Corn [12]: 0; Corn plant response rating [12]: 50; Ryegrass, Italian plant response rating [13]: 100; Plant response rating, Ryegrass, Italian [13]: 100; Plant response rating, Foxtail, Giant [14]: 70; Foxtail, Giant plant response rating [14]: 90; Plant response rating, Kochia [15]: 0; Kochia plant response rating [15]: 20; Plant response rating, Blackgrass [16]: 0; Blackgrass plant response rating [16]: 30 |
| CCn1nccc(-c2cc(NS(=O)(=O)C(F)(F)F)c(C)cc2C)c1=O [Compound 79] | 40 | 80 | 90 | 90 | 100 | 100 | 80 | 90 | 100 | 100 | 30 | 80 | 90 | 100 | 70 | 90 | 30 | 80 | 80 | 90 | Plant response rating, Wheat [11]: 70; Wheat plant response rating [11]: 80; Plant response rating, Corn [12]: 10; Corn plant response rating [12]: 70; Ryegrass, Italian plant response rating [13]: 90; Plant response rating, Ryegrass, Italian [13]: 100; Plant response rating, Foxtail, Giant [14]: 90; Foxtail, Giant plant response rating [14]: 90; Plant response rating, Kochia [15]: 40; Kochia plant response rating [15]: 70; Plant response rating, Blackgrass [16]: 30; Blackgrass plant response rating [16]: 30 |
| Cc1cc(C)c(-c2ccnn(C)c2=O)cc1NS(=O)(=O)C(F)(F)F [Compound 80] | 70 | 80 | 90 | 90 | 90 | 100 | 70 | 90 | 90 | 90 | 70 | 70 | 60 | 90 | 80 | 80 | 90 | 90 | 70 | 90 | Plant response rating, Wheat [11]: 60; Wheat plant response rating [11]: 80; Plant response rating, Corn [12]: 20; Corn plant response rating [12]: 80; Ryegrass, Italian plant response rating [13]: 90; Plant response rating, Ryegrass, Italian [13]: 90; Plant response rating, Foxtail, Giant [14]: 90; Foxtail, Giant plant response rating [14]: 90; Plant response rating, Kochia [15]: 40; Kochia plant response rating [15]: 70; Plant response rating, Blackgrass [16]: 60; Blackgrass plant response rating [16]: 100 |
| COc1cc(C)c(NS(=O)(=O)C(F)(F)F)cc1-c1ccnn(C)c1=O [Compound 81] | 0 | 60 | 80 | 90 | 100 | 100 | 30 | 40 | 90 | 90 | 20 | 60 | 30 | 100 | 0 | 80 | 20 | 60 | 70 | 80 | Plant response rating, Wheat [11]: 40; Wheat plant response rating [11]: 60; Plant response rating, Corn [12]: 0; Corn plant response rating [12]: 20; Ryegrass, Italian plant response rating [13]: 30; Plant response rating, Ryegrass, Italian [13]: 50; Plant response rating, Foxtail, Giant [14]: 90; Foxtail, Giant plant response rating [14]: 90; Plant response rating, Kochia [15]: 40; Kochia plant response rating [15]: 50; Plant response rating, Blackgrass [16]: 0; Blackgrass plant response rating [16]: 70 |
| Cc1cc(C)c(-n2nccc(Cl)c2=O)cc1NS(=O)(=O)C(F)(F)F [Compound 82] | 0 | 0 | 20 | 10 | 0 | 60 | 0 | 20 | 40 | 80 | 0 | 40 | 90 | 80 | 70 | 90 | 0 | 30 | 60 | 20 | Plant response rating, Wheat [11]: 0; Wheat plant response rating [11]: 0; Plant response rating, Corn [12]: 0; Corn plant response rating [12]: 40; Ryegrass, Italian plant response rating [13]: 20; Plant response rating, Ryegrass, Italian [13]: 40; Plant response rating, Foxtail, Giant [14]: 20; Foxtail, Giant plant response rating [14]: 50; Plant response rating, Kochia [15]: 0; Kochia plant response rating [15]: 0; Plant response rating, Blackgrass [16]: 0; Blackgrass plant response rating [16]: 0 |
